Measurements taken from publication PMC11591356, “Immunomodulatory Effects of the Tobacco Defensin NaD1” (Antibiotics, 2024).

Columns and labels:
PBMCs [1] = conditions: cited from earlier work
Method: (§1) The human cathelicidin LL-37 has been previously shown to have a toxic effect on PBMCs at the concentration of 12 µM [20].

[2] = tested on: THP-1-derived macrophages; test: ELISA assay of cytokine production by THP-1-derived macrophages; assay type: cell-based, human
Method: THP-1 (ATCC TIB-202) cells were thawed and cultured in complete RPMI-1640, containing 10% FBS (Capricorn Scientific) and 1×AA solution in CO2-intubator. Monocytic THP-1 cells were differentiated into resting M0 macrophages by stimulation for 24 h with 100 ng/mL phorbol 12-myristate 13-acetate (PMA) in complete RPMI-1640. Then, the attached macrophage-like cells were washed out with culture medium without serum and incubated for another 48 h in PMA-free complete culture medium with 10% HS and 1×AA solution.
THP-1-derived macrophages were seeded into the wells of a 24-well plate at a density of 2.7 × 10^5 cells/well in complete RPMI-1640 with 10% HS and 1×AA solution. Then, 24 h later, the culture medium was replaced by the fresh complete RPMI-1640 containing lipopolysaccharide from Escherichia coli 0111:B4 (LPS, Sigma, St. Louis, MO, USA) or zymosan from the cell wall of Saccharomyces cerevisiae (Serva, Heidelberg, Germany) at concentrations of 1 or 10 μg/mL, respectively; antimicrobial peptides NaD1, Psd1, LL-37 or HBD2 at concentrations of 2 or 0.2 µM; and combinations of antimicrobial peptides with LPS or zymosan at the same concentrations. Insoluble zymosan was resuspended in sterile water and sonicated twice for 30 s; after that, the stock solution was heated to 80 °C for 20 min. Peptides were added 2 h before stimulation with LPS and zymosan. After that, PAMPs solutions were added and the cells were cultured for 24 h. Complete RPMI-1640 only was used in the control wells. Culture supernatants were collected and stored at −70 °C prior to the cytokines’ assessment.
The production of pro- and anti-inflammatory cytokines IL-1β, IL-6, TNF-α and IL-10 by stimulated and non-stimulated THP-1-derived macrophages were estimated by using ELISA kits (Vector-Best, Koltsovo, Russia). Briefly, 96-well plates with adsorbed monoclonal antibodies to the corresponding cytokine were used. Undiluted or diluted 5, 20 or 80 times in the case of IL-10, TNF-α and IL-1β or IL-6, respectively, culture supernatants from the wells of 24-well plates were taken for analysis. Biotinylated polyclonal antibodies to cytokines, streptavidin conjugated to HRP and TMB substrate were further used for the detection of immune complexes. A panel of calibration solutions containing different concentrations of cytokines was used in each experiment. Experiments were performed using two biological and two technical repeats. The release of the cytokines in the control and experimental samples was compared with an unpaired two-sample t-test using GraphPad Prism v.8.0.1 (GraphPad Software, Inc., San Diego, CA, USA). The p values ≤ 0.05 were considered significant.

primary monocytes = conditions: cited from earlier work
Source text: Then, primary human monocytes were chosen to study the immunomodulatory properties of NaD1. Monocytes circulating in the blood can be recruited and extravasated into tissues during inflammatory processes. Moreover, the recruitment of monocytes to the sites of inflammation is critical for host defense not only when infected, but also in the case of sterile injury. In the case of monocytes, NaD1 at the same concentration induced a decrease of chemotactic CXCL1/GROα and CXCL8/IL-8 levels and elevation of the fibroblast growth factor 2 (FGF-2) production; however, these changes were ...

mature DCs = conditions: previous study; cited from earlier work
Source text: In the next step of this work, we studied the immunomodulatory properties of NaD1 by using primary monocytes and monocyte-derived immature dendritic cells (DCs). DCs represent a type of antigen-presenting cells, playing a key role in adaptive immune response. Their primary functions involve phagocytosis, processing and presentation of captured antigens to T cells. In most tissues, they are present in a state known as “immature” DCs, unable to activate and stimulate T lymphocytes; their activation and maturation typically starts when DCs identify danger signals. This is why immature DCs ...

[3] = tested on: Caco-2 polarized monolayer; conditions: cited from earlier work
THP-1 cells = conditions: peptide 1.2 µM; cited from earlier work
Method: as §1

PBMCs [4] = test: Cytotoxicity assay, resazurin method, PBMCs; assay type: cell-based, human; conditions: PBMCs, peptide 2.5 µM, 24 h, resazurin
Source text: Peripheral blood mononuclear cells (PBMCs) from healthy donors were purchased from American Type Culture Collection (ATCC PCS-800-011). Primary monocytes were isolated from PBMCs by adherence to the plastic surface. For that, PBMCs were thawed, resuspended in RPMI-1640 culture medium (Corning, Corning, NY, USA) without serum at a concentration of 2 × 10^6 cells/mL, seeded into the wells of a 24-well plate and placed in a humidified CO2-intubator (CellXpert C170i, Eppendorf, Hamburg, Germany) for 1 h. After that, non-adherent cells were removed from the wells and attached monocytes were thoroughly washed with PBS and cultured in a CO2-intubator in complete RPMI-1640 containing 10% human serum (HS Type AB, Capricorn Scientific, Ebsdorfergrund, Germany) and 1×antibiotic-antimycotic (1×AA) solution (Sigma, St. Louis, MO, USA).
(§2) The cytotoxic effects of the tobacco defensin NaD1 towards PBMCs or Caco-2 cells were investigated in 96-well plates using the resazurin method as previously described. In brief, 4 × 10^5 per well Caco-2 cells not in a monolayer as well as Caco-2 cells in a monolayer in DMEM/F12 (1:1) medium with 10% FBS or 2 × 10^6 PBMCs per well in RPMI-1640 also with 10% FBS were incubated with serial dilutions of NaD1 at final concentrations from 0.39 to 50 μM or from 2.1 to 180 μM for 24 h. After that, resazurin (Sigma, St. Louis, MO, USA) was added at a final concentration of 70 µM and the plates were incubated overnight (16–18 h). Untreated cells and cells treated by non-ionogenic detergent Triton X-100 were used as negative and positive controls, respectively. […] The cell viability was estimated by resorufin fluorescence registered at […] via the following equation: cell viability (%) = (Fsample/Fcontrol) × 100%. Experiment was carried out twice in duplicate.

[5] = tested on: Caco-2 cells in a monolayer; test: Cytotoxicity assay, resazurin method, Caco-2 cells in a monolayer; assay type: cell-based, human; conditions: Caco-2 monolayer, peptide 0.8 µM, 24 h
Method: as §2

[6] = peptide 2 µM 2 h before LPS 1 μg/mL, 24 h, vs LPS alone
[7] = peptide 2 µM 2 h before zymosan 10 μg/mL, 24 h, vs zymosan alone

CC[C@H](C)[C@H](NC(=O)[C@H](CCCCN)NC(=O)[C@H](CCC(=O)O)NC(=O)[C@H](CCCCN)NC(=O)[C@H](CO)NC(=O)[C@H](CCCCN)NC(=O)[C@H](CCCNC(=N)N)NC(=O)[C@H](Cc1ccccc1)NC(=O)[C@H](Cc1ccccc1)NC(=O)[C@H](CC(=O)O)NC(=O)CNC(=O)[C@H](CC(C)C)NC(=O)[C@@H](N)CC(C)C)C(=O)NCC(=O)N[C@@H](CCCCN)C(=O)N[C@@H](CCC(=O)O)C(=O)N[C@@H](Cc1ccccc1)C(=O)N[C@@H](CCCCN)C(=O)N[C@@H](CCCNC(=N)N)C(=O)N[C@H](C(=O)N[C@H](C(=O)N[C@@H](CCC(N)=O)C(=O)N[C@@H](CCCNC(=N)N)C(=O)N[C@H](C(=O)N[C@@H](CCCCN)C(=O)N[C@@H](CC(=O)O)C(=O)N[C@@H](Cc1ccccc1)C(=O)N[C@@H](CC(C)C)C(=O)N[C@@H](CCCNC(=N)N)C(=O)N[C@@H](CC(N)=O)C(=O)N[C@@H](CC(C)C)C(=O)N[C@H](C(=O)N1CCC[C@H]1C(=O)N[C@@H](CCCNC(=N)N)C(=O)N[C@H](C(=O)N[C@@H](CCC(=O)O)C(=O)N[C@@H](CO)C(=O)O)[C@@H](C)O)C(C)C)[C@@H](C)CC)C(C)C)[C@@H](C)CC [LL-37]
Toxic effect on PBMCs (PBMCs [1]; peptide 12 µM): toxic effect

Psd1: Pea defensin Psd1 (UNIPROT P81929), obtained as described previously (KTCEHLADTYRGVCFTNASCDDHCKNKAHLISGTCHNWKCFCTQNC; UniProt P81929 1-46, looked up) [reference compound]
LPS-induced IL-6 production [2, 6]: increased the LPS-stimulated production of IL-6 | LPS-induced IL-10 production [2, 6]: increased the LPS-induced production of IL-10 | LPS-induced TNF-α secretion [2, 6]: reduced the LPS-induced secretion of TNF-α | IL-1β production in the presence of zymosan [2, 7]: slightly reduced the production of IL-1β | IL-10 production in the presence of zymosan [2, 7]: increased the production of IL-10 in the presence of zymosan | IL-10 production, unstimulated macrophages ([2]; peptide 2 µM alone, vs unstimulated control): induced the production of IL-10 | Production of chemokines by monocytes (primary monocytes): increased the production of both CCL3/MIP-1α and CCL4/MIP-1β | Cytotoxic activity against PBMCs (PBMCs [1]; peptide 50 µM): no cytotoxic activity | Production of cytokines and chemokines by mature DCs (mature DCs): induced an elevation of the production of cytokines IL-1RA, IL-5, IL-6, IL-10, IL-12, IL-15, IL-27 and TNFα and chemokines CXCL8/IL-8, CCL2/MCP-1 and CCL7/MCP-3 | Papp A→B compared with NaD1 ([3]; Psd1 value from earlier work): nearly the same | Papp, secretory versus absorptive direction [3]: apparent permeability coefficients were higher in the secretory direction than in the absorptive one

HBD2: Recombinant human β-defensin 2 (UNIPROT O15263), expressed in E. coli (GIGDPVTCLKSGAICHPVFCPRRYKQIGTCGLPGTKCCKKP; UniProt O15263 24-64, looked up) [reference compound]
LPS-induced IL-6 production [2, 6]: increased the LPS-stimulated production of IL-6 | Zymosan-induced IL-6 production [2, 7]: slight decrease in the zymosan-induced production of IL-6 | Level of THP-1 cell death (THP-1 cells): did not increase the level of THP-1 cell death

CC[C@H](C)[C@H](NC(=O)CN)C(=O)NCC(=O)N[C@@H](C)C(=O)N[C@H](C(=O)N[C@@H](CC(C)C)C(=O)N[C@@H](CCCCN)C(=O)N[C@H](C(=O)N[C@@H](CC(C)C)C(=O)N[C@H](C(=O)N[C@H](C(=O)NCC(=O)N[C@@H](CC(C)C)C(=O)N1CCC[C@H]1C(=O)N[C@@H](C)C(=O)N[C@@H](CC(C)C)C(=O)N[C@H](C(=O)N[C@@H](CO)C(=O)N[C@@H](Cc1c[nH]c2ccccc12)C(=O)N[C@H](C(=O)N[C@@H](CCCCN)C(=O)N[C@@H](CCCNC(=N)N)C(=O)N[C@@H](CCCCN)C(=O)N[C@@H](CCCNC(=N)N)C(=O)N[C@@H](CCC(N)=O)C(=O)N[C@@H](CCC(N)=O)C(N)=O)[C@@H](C)CC)[C@@H](C)CC)[C@@H](C)O)[C@@H](C)O)C(C)C)C(C)C [melittin, reference compound]
Cell death (PBMCs [4]): approximately 50% | Cell viability [5]: a decrease in cell viability was observed
